The values that follow are results of earlier work, collected in patent US20240245680A1, “Methods of Treating Retinal Vasculopathies” (Unity Biotechnology, Inc., priority 2021, published 2024).

Usually IC50 stands for the concentration needed to halve the response being measured.

One series concerns the target T1, GLS2 (Homo sapiens, UniProt Q9UI32).
T1 sequence (Q9UI32 15-602): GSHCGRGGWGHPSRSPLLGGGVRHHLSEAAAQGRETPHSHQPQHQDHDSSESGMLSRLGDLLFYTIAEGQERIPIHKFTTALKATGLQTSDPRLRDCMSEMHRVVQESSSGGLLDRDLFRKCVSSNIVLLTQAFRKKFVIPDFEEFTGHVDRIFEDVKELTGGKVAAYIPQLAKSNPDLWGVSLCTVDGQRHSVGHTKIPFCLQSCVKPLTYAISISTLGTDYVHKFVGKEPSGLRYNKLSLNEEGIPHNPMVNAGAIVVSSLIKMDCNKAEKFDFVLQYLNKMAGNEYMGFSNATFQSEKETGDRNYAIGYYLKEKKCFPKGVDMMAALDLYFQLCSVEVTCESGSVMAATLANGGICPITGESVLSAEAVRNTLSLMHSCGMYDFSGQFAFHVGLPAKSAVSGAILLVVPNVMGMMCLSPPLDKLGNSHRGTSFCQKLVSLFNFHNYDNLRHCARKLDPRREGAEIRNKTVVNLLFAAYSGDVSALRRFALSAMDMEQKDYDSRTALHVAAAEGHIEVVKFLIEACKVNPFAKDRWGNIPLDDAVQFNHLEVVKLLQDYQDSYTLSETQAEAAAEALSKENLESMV
The note with it: cited from earlier work.

For a further series, the target named is T2, glutaminase C (GAC) (Homo sapiens, UniProt O94925).
T2 sequence (O94925 55-598 isoform O94925-3 limits assumed): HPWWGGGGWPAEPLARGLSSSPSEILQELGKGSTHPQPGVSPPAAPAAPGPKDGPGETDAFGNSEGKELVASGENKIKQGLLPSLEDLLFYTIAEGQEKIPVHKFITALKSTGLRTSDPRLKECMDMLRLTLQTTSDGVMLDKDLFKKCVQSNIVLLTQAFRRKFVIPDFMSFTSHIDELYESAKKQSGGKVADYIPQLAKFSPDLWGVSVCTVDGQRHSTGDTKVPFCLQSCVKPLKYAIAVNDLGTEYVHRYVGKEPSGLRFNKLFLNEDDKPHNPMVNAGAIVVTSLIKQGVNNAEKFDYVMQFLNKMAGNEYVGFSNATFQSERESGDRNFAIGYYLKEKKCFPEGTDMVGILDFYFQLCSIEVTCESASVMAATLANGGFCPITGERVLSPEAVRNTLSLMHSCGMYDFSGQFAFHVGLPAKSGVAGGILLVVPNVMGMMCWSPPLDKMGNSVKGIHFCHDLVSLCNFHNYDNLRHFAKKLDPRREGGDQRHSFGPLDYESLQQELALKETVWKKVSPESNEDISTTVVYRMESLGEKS
The following applies: cited from earlier work.

As to `O=C(Cc1ccccc1)Nc1nnc(NC2CCN(c3nnc(NC(=O)Cc4ccccc4)s3)CC2)s1` [UPGL00004], the “selectivity for GAC over GLS2” value at GLS2 is “high selectivity”. In addition, the IC50 on glutaminase C (GAC) was 29 nM.
